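Step 1: Grow cells in 96-well plates. Step 2: Expose to compound for 48 hours at 5 concentrations. Step 3: Interpolate endpoints linearly; if unreached, use highest concentration. At the TGI there is no net growth.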
How the values were obtained:
Assay in all cases: DTP human tumour cell line panel, 48 h
OVCAR-5 ovarian = test system: OVCAR-5 ovarian
SK-MEL-28 melanoma = test system: SK-MEL-28 melanoma
COLO 205 colon = test system: COLO 205 colon
NCI-H522 lung = test system: NCI-H522 lung
A498 renal = test system: A498 renal
KM20L2 colon = test system: KM20L2 colon
HL-60(TB) leukemia = test system: HL-60(TB) leukemia
OVCAR-4 ovarian = test system: OVCAR-4 ovarian
RPMI-8226 leukemia = test system: RPMI-8226 leukemia
NCI-H226 lung = test system: NCI-H226 lung
IGROV1 ovarian = test system: IGROV1 ovarian
HT29 colon = test system: HT29 colon
CCRF-CEM leukemia = test system: CCRF-CEM leukemia
SNB-75 CNS = test system: SNB-75 CNS
SF-295 CNS = test system: SF-295 CNS
DLD-1 colon = test system: DLD-1 colon
OVCAR-3 ovarian = test system: OVCAR-3 ovarian
SNB-78 CNS = test system: SNB-78 CNS
SR leukemia = test system: SR leukemia
NCI-H460 lung = test system: NCI-H460 lung
MALME-3M melanoma = test system: MALME-3M melanoma
DMS 114 small cell lung = test system: DMS 114 small cell lung
ACHN renal = test system: ACHN renal
EKVX NSCLC = test system: EKVX NSCLC
U251 CNS = test system: U251 CNS
CAKI-1 renal = test system: CAKI-1 renal
M14 melanoma = test system: M14 melanoma
UACC-62 melanoma = test system: UACC-62 melanoma
KM12 colon = test system: KM12 colon
TK-10 renal = test system: TK-10 renal
SK-OV-3 ovarian = test system: SK-OV-3 ovarian
HOP-18 NSCLC = test system: HOP-18 NSCLC
HCT-116 colon = test system: HCT-116 colon
SF-539 CNS = test system: SF-539 CNS
NCI-H23 lung = test system: NCI-H23 lung
HCC-2998 colon = test system: HCC-2998 colon
SF-268 CNS = test system: SF-268 CNS
K-562 leukemia = test system: K-562 leukemia
XF 498 CNS = test system: XF 498 CNS
SK-MEL-2 melanoma = test system: SK-MEL-2 melanoma
LXFL 529 NSCLC = test system: LXFL 529 NSCLC
OVCAR-8 ovarian = test system: OVCAR-8 ovarian
UO-31 renal = test system: UO-31 renal
UACC-257 melanoma = test system: UACC-257 melanoma
HOP-92 NSCLC = test system: HOP-92 NSCLC
HOP-62 NSCLC = test system: HOP-62 NSCLC
HCT-15 colon = test system: HCT-15 colon
RXF-631 renal = test system: RXF-631 renal
786-0 renal = test system: 786-0 renal
RXF 393 renal = test system: RXF 393 renal
SN12C renal = test system: SN12C renal
SW-620 colon = test system: SW-620 colon
A549 NSCLC = test system: A549 NSCLC
SK-MEL-5 melanoma = test system: SK-MEL-5 melanoma
LOX IMVI melanoma = test system: LOX IMVI melanoma
DMS 273 small cell lung = test system: DMS 273 small cell lung
SNB-19 CNS = test system: SNB-19 CNS
PC-3 prostate = test system: PC-3 prostate
MDA-MB-435 = test system: MDA-MB-435
MDA-N = test system: MDA-N
M19-MEL melanoma = test system: M19-MEL melanoma
HS 578T breast = test system: HS 578T breast
MDA-MB-231 breast = test system: MDA-MB-231 breast
NCI/ADR-RES ovarian = test system: NCI/ADR-RES ovarian
MOLT-4 leukemia = test system: MOLT-4 leukemia
BT-549 breast = test system: BT-549 breast
T-47D breast = test system: T-47D breast
DU-145 prostate = test system: DU-145 prostate
MCF7 breast = test system: MCF7 breast

`Cn1c2c([N+](=O)[O-])[se]nc2c(=O)n1-c1ccc([N+](=O)[O-])cc1` gave a TGI (OVCAR-5 ovarian) of 4.44 µM, a TGI (SK-MEL-28 melanoma) of 4.39 µM and a TGI (COLO 205 colon) of 4.23 µM. The TGI (NCI-H522 lung) was 2.94 µM, the TGI (A498 renal) was 23.7 µM and the TGI (KM20L2 colon) was 18.3 µM. It also gave a TGI (HL-60(TB) leukemia) greater than 23.1 µM, a TGI (OVCAR-4 ovarian) of 0.909 µM and a TGI (RPMI-8226 leukemia) of 5.51 µM. For the same compound, the TGI (NCI-H226 lung) was 7.91 µM, the TGI (IGROV1 ovarian) was 2590 nM and the TGI (HT29 colon) was 8.12 µM. The TGI (CCRF-CEM leukemia) was greater than 100 µM, the TGI (SNB-75 CNS) was 7.63 µM and the TGI (SF-295 CNS) was 11.6 µM. For the same compound, the TGI (DLD-1 colon) was 2690 nM, the TGI (OVCAR-3 ovarian) was 3.12 µM and the TGI (SNB-78 CNS) was 3.76 µM. The TGI (SR leukemia) was 0.271 µM, the TGI (NCI-H460 lung) was 6.77 µM and the TGI (MALME-3M melanoma) was 3.23 µM. It also gave a TGI (DMS 114 small cell lung) of 0.575 µM, a TGI (ACHN renal) of 3.71 µM and a TGI (EKVX NSCLC) of 5.23 µM. The TGI (U251 CNS) was 7.04 µM, the TGI (CAKI-1 renal) was 4.03 µM and the TGI (M14 melanoma) was 2.62 µM. For the same compound, the TGI (UACC-62 melanoma) was 3.25 µM, the TGI (KM12 colon) was 15.7 µM and the TGI (TK-10 renal) was 16.2 µM. The TGI (SK-OV-3 ovarian) was 6.1 µM, the TGI (HOP-18 NSCLC) was 5.17 µM and the TGI (HCT-116 colon) was 3.39 µM. The TGI (SF-539 CNS) was 4.49 µM, the TGI (NCI-H23 lung) was 4.49 µM and the TGI (HCC-2998 colon) was 3.62 µM. It also gave a TGI (SF-268 CNS) of 4.77 µM, a TGI (K-562 leukemia) greater than 100 µM and a TGI (XF 498 CNS) of 3.71 µM. For the same compound, the TGI (SK-MEL-2 melanoma) was 11.2 µM, the TGI (LXFL 529 NSCLC) was 2.5 µM and the TGI (OVCAR-8 ovarian) was 2.72 µM. For the same compound, the TGI (UO-31 renal) was 3.59 µM, the TGI (UACC-257 melanoma) was 4.17 µM and the TGI (HOP-92 NSCLC) was 3.37 µM. For the same compound, the TGI (HOP-62 NSCLC) was 14.2 µM, the TGI (HCT-15 colon) was 2.73 µM and the TGI (RXF-631 renal) was 4.04 µM. It also gave a TGI (786-0 renal) of 6.5 µM, a TGI (RXF 393 renal) of 2.21 µM and a TGI (SN12C renal) of 3.46 µM. It also gave a TGI (SW-620 colon) of 1.48 µM, a TGI (A549 NSCLC) of 20.6 µM and a TGI (SK-MEL-5 melanoma) of 14.6 µM. The TGI (LOX IMVI melanoma) was 6.88 µM, the TGI (DMS 273 small cell lung) was 6.96 µM and the TGI (SNB-19 CNS) was 18.4 µM.

For `O=C1c2ccccc2C(=O)c2c(NCCCNCCO)ccc(NCCCNCCO)c21`, the TGI (OVCAR-5 ovarian) was 44.7 µM, the TGI (PC-3 prostate) was 22.6 µM and the TGI (SK-MEL-28 melanoma) was 16.8 µM. The TGI (COLO 205 colon) was 18.9 µM, the TGI (NCI-H522 lung) was 15.5 µM and the TGI (A498 renal) was 31.1 µM. It also gave a TGI (MDA-MB-435) of 25.7 µM, a TGI (KM20L2 colon) of 19.9 µM and a TGI (HL-60(TB) leukemia) of 33.8 µM. For the same compound, the TGI (OVCAR-4 ovarian) was 26.9 µM, the TGI (RPMI-8226 leukemia) was 53.1 µM and the TGI (NCI-H226 lung) was 12.3 µM. For the same compound, the TGI (MDA-N) was 20 µM, the TGI (IGROV1 ovarian) was greater than 49000 nM and the TGI (HT29 colon) was 15.9 µM. For the same compound, the TGI (CCRF-CEM leukemia) was 23.1 µM, the TGI (SNB-75 CNS) was 23.3 µM and the TGI (SF-295 CNS) was 31.9 µM. The TGI (OVCAR-3 ovarian) was 27.3 µM, the TGI (SNB-78 CNS) was 30.8 µM and the TGI (SR leukemia) was 20.8 µM. The TGI (NCI-H460 lung) was 15.5 µM, the TGI (MALME-3M melanoma) was 27.9 µM and the TGI (DMS 114 small cell lung) was 25.2 µM. It also gave a TGI (ACHN renal) of 25.5 µM, a TGI (M19-MEL melanoma) of 18.6 µM and a TGI (HS 578T breast) of 34.4 µM. It also gave a TGI (EKVX NSCLC) of 26.3 µM, a TGI (U251 CNS) of 23.3 µM and a TGI (MDA-MB-231 breast) of 24.2 µM. For the same compound, the TGI (CAKI-1 renal) was 98.2 µM, the TGI (M14 melanoma) was 25.5 µM and the TGI (UACC-62 melanoma) was 24.6 µM. For the same compound, the TGI (NCI/ADR-RES ovarian) was greater than 100 µM, the TGI (KM12 colon) was 18.4 µM and the TGI (TK-10 renal) was 40.6 µM. The TGI (SK-OV-3 ovarian) was 58.7 µM, the TGI (HOP-18 NSCLC) was 67.2 µM and the TGI (HCT-116 colon) was 16.8 µM. The TGI (SF-539 CNS) was 15.3 µM, the TGI (NCI-H23 lung) was 23.9 µM and the TGI (HCC-2998 colon) was 16.7 µM. For the same compound, the TGI (MOLT-4 leukemia) was 18.5 µM, the TGI (SF-268 CNS) was 17.9 µM and the TGI (K-562 leukemia) was 13.9 µM. It also gave a TGI (XF 498 CNS) of 27 µM, a TGI (SK-MEL-2 melanoma) of 17.7 µM and a TGI (BT-549 breast) of 30.7 µM. It also gave a TGI (LXFL 529 NSCLC) of 16.1 µM, a TGI (OVCAR-8 ovarian) of 31 µM and a TGI (UO-31 renal) of 28.4 µM. It also gave a TGI (T-47D breast) of 68.2 µM, a TGI (UACC-257 melanoma) of 46.8 µM and a TGI (HOP-92 NSCLC) of 26.2 µM. It also gave a TGI (HOP-62 NSCLC) of 23.8 µM, a TGI (HCT-15 colon) of 29.8 µM and a TGI (RXF-631 renal) greater than 100 µM. The TGI (786-0 renal) was 16.6 µM, the TGI (RXF 393 renal) was 18.2 µM and the TGI (SN12C renal) was 14.4 µM. It also gave a TGI (SW-620 colon) of 17.6 µM, a TGI (A549 NSCLC) of 47.3 µM and a TGI (SK-MEL-5 melanoma) of 28.7 µM. It also gave a TGI (LOX IMVI melanoma) of 14.9 µM, a TGI (DU-145 prostate) of 35.8 µM and a TGI (MCF7 breast) of 10.8 µM. For the same compound, the TGI (SNB-19 CNS) was 20.9 µM.

— PubChem BioAssay (NCI)
